# Measurements from US20260286396A1, “AXL KNOCK OUT CAR T CELLS AND METHODS FOR USE THEREOF” (priority 2023, published 2026).
# Tested on: CART19 cells
# Assay: RNA sequencing of CART19 cells with Ingenuity pathway analysis (pathways, upstream regulators)
# Assay type: cell-based, human
# Conditions: CART19+JeKo-1, 30 nM TP-0903 vs vehicle, 24 h
# Procedure: CART19 cells were isolated using CD4 and CD8 microbeads to […] the JeKo-1 target cells; this isolation step was performed twice to eliminate the possible contamination of JeKo-1 cells. RNA was isolated from the CART19 cells using QIAGEN RNEASY® Plus Mini Kit. RNA was further treated with DNase I (QIAGEN) and purified using RNA Clean & Concentrator (Zymo Research). […] The fastq files were viewed in FastQC to check for quality (Cox et al., Mol Ther., 29 (4): 1529-1540, 2020). After verifying the lack of adapter sequences with FastQC, Cutadapt (Martin, EMBnet, 17:10-12, 2011) was used to filter for reads greater than 32 base pairs. Output files were re-checked for quality using FastQC. The latest human reference genome (GRCh38.p13) was downloaded from NCBI. Genome index files were generated using STAR (Cox et al. 2020, supra, and Dobin et al., Bioinformatics, 29:15-21, 2012). Paired end reads from fastq files were mapped to the genome for each condition. HTSeq was used to generate expression counts for each gene (Cox et al. 2020, supra; and Putri et al., Bioinformatics, 38:2943-2945, 2022). […] The disruption efficiency of the CRISPR/Cas9 GM-CSF knockout was determined using targeted sequencing through PCR and TIDE analysis (software available at tide.nki.nl) as described elsewhere (Sakemura et al. 2021, supra).
# RNA sequencing of CART19 cells was then performed. […] Data were analyzed with the use of QIAGEN Ingenuity Pathway Analysis (IPA) (digitalinsights.qiagen.com/IPA; Krämer et al., Bioinformatics 30 (4): 523-530, 2014).
compound,measurement,value
"CN1CCN(Cc2ccc(Nc3ncc(Cl)c(Nc4ccccc4S(=O)(=O)N(C)C)n3)cc2)CC1 [TP-0903, Dubermatinib]",ABCG1 Expr Log Ratio,−0.301
same,ADORA2A Expr Log Ratio,0.629
same,ADRA1B Expr Log Ratio,−0.268
same,AGPAT2 Expr Log Ratio,0.051
same,ALDH2 Expr Log Ratio,−0.892
same,APP Expr Log Ratio,0.132
same,ARHGAP5 Expr Log Ratio,0.025
same,ARNT Expr Log Ratio,−0.009
same,ATF3 Expr Log Ratio,−0.209
same,ATF4 Expr Log Ratio,−0.52
same,BCAP31 Expr Log Ratio,0.118
same,BCL3 Expr Log Ratio,0.097
same,BCL6 Expr Log Ratio,0.021
same,BMP7 Expr Log Ratio,−0.942
same,BMP10 Expr Log Ratio,−1.585
same,BTK Expr Log Ratio,−0.323
same,C3 Expr Log Ratio,0.511
same,CALCA Expr Log Ratio,−1.865
same,CCND1 Expr Log Ratio,−0.129
same,CCR3 Expr Log Ratio,−0.728
same,CD2 Expr Log Ratio,0.318
same,CD5 Expr Log Ratio,0.33
same,CD28 Expr Log Ratio,0.407
same,CD38 Expr Log Ratio,−0.087
same,CD40LG Expr Log Ratio,0.131
same,CD44 Expr Log Ratio,0.428
same,CD48 Expr Log Ratio,0.067
same,CD274 Expr Log Ratio,−0.506
same,COMMD1 Expr Log Ratio,0.174
same,DUSP10 Expr Log Ratio,0.211
same,EBF1 Expr Log Ratio,−0.235
same,EDN1 Expr Log Ratio,−0.099
same,EIF2AK4 Expr Log Ratio,−0.2
same,EPX Expr Log Ratio,−0.176
same,ERBB2 Expr Log Ratio,−0.057
same,FHL2 Expr Log Ratio,0.639
same,FMR1 Expr Log Ratio,0.099
same,FYN Expr Log Ratio,0.259
same,GAS5-AS1 Expr Log Ratio,−0.022
same,GNA14 Expr Log Ratio,−2.841
same,HAVCR1 Expr Log Ratio,−0.121
same,IGF1 Expr Log Ratio,−0.149
same,IGF1R Expr Log Ratio,−0.155
same,IKBKB Expr Log Ratio,−0.036
same,IKZF2 Expr Log Ratio,−0.318
same,IL4R Expr Log Ratio,0.093
same,IL10 Expr Log Ratio,−0.008
same,IL15 Expr Log Ratio,0.191
same,IL18 Expr Log Ratio,0.03
same,IL21 Expr Log Ratio,−0.452
same,INSIG1 Expr Log Ratio,−0.836
same,IRF4 Expr Log Ratio,−0.587
same,ITGB2 Expr Log Ratio,0.114
same,KDM1A Expr Log Ratio,0.09
same,KRAS Expr Log Ratio,0.11
same,LEF1 Expr Log Ratio,0.105
same,LGALS3 Expr Log Ratio,−0.014
same,LTA Expr Log Ratio,0.37
same,LTBR Expr Log Ratio,0.08
same,MAPK3 Expr Log Ratio,−0.166
same,MAPK7 Expr Log Ratio,−0.017
same,MBP Expr Log Ratio,0.105
same,MED1 Expr Log Ratio,−0.112
same,MIR-29 Expr Log Ratio,−3.808
same,MYB Expr Log Ratio,−0.03
same,MYDGF Expr Log Ratio,−0.06
same,NFATC1 Expr Log Ratio,0.232
same,NFE2L2 Expr Log Ratio,0.172
same,NFIL3 Expr Log Ratio,−0.13
same,NFKBIA Expr Log Ratio,0.173
same,NPAT Expr Log Ratio,−0.021
same,NR4A2 Expr Log Ratio,0.982
same,NREP Expr Log Ratio,−0.21
same,PAF1 Expr Log Ratio,0.135
same,PDCD1 Expr Log Ratio,0.967
same,POU2F1 Expr Log Ratio,−0.356
same,PRDM1 Expr Log Ratio,−0.006
same,PRKCZ Expr Log Ratio,0.36
same,PTEN Expr Log Ratio,1.201
same,PTPRJ Expr Log Ratio,0.044
same,RAD21L1 Expr Log Ratio,0.844
same,RAMP1 Expr Log Ratio,−0.296
same,RRP1B Expr Log Ratio,−0.087
same,RXRA Expr Log Ratio,−0.75
same,SATB2 Expr Log Ratio,−0.715
same,SIRT6 Expr Log Ratio,−0.028
same,SMAD2 Expr Log Ratio,−0.395
same,SMAD7 Expr Log Ratio,0.057
same,SMC1B Expr Log Ratio,−0.146
same,SNCA Expr Log Ratio,1.134
same,SORL1 Expr Log Ratio,0.047
same,SPI1 Expr Log Ratio,−0.215
same,SREBF1 Expr Log Ratio,−0.191
same,SREBF2 Expr Log Ratio,−0.048
same,STAG3 Expr Log Ratio,−0.19
same,STARD7 Expr Log Ratio,−0.076
same,SUCNR1 Expr Log Ratio,−1.022
same,TEAD3 Expr Log Ratio,−0.396
same,TERT Expr Log Ratio,−0.599
same,TGFB1 Expr Log Ratio,−0.094
same,TGFB3 Expr Log Ratio,0.178
same,TGFBR2 Expr Log Ratio,0.18
same,TLR2 Expr Log Ratio,0.013
same,TLR7 Expr Log Ratio,−1.275
same,TNFRSF4 Expr Log Ratio,0.263
same,TNFSF15 Expr Log Ratio,1.42
same,TPH1 Expr Log Ratio,0.019
same,TRAF3 Expr Log Ratio,0.022
same,WNT5B Expr Log Ratio,−0.491
same,YAP1 Expr Log Ratio,−0.546
same,upstream regulator ABCG1 Activation Z-Score,1.387
same,upstream regulator ADORA2A Activation Z-Score,−0.245
same,upstream regulator AGPAT2 Activation Z-Score,1
same,upstream regulator ALDH2 Activation Z-Score,1.432
same,upstream regulator APP Activation Z-Score,−2.018
same,upstream regulator APP Predicted Activation State,inhibited
same,upstream regulator ARNT Activation Z-Score,−1.795
same,upstream regulator ATF3 Activation Z-Score,−1.227
same,upstream regulator ATF4 Activation Z-Score,−2.62
same,upstream regulator ATF4 Predicted Activation State,inhibited
same,upstream regulator BCAP31 Activation Z-Score,−0.968
same,upstream regulator BCL3 Activation Z-Score,−1.353
same,upstream regulator BCL6 Activation Z-Score,0.949
same,upstream regulator BCR (COMPLEX) Activation Z-Score,−1.126
same,upstream regulator BMP7 Activation Z-Score,−1.089
same,upstream regulator BMP10 Activation Z-Score,−0.707
same,upstream regulator BTK Activation Z-Score,−1.091
same,upstream regulator C3 Activation Z-Score,−0.378
same,upstream regulator CALCA Activation Z-Score,0.887
same,upstream regulator CCK Activation Z-Score,0.437
same,upstream regulator CCL2 Activation Z-Score,−1.368
same,upstream regulator CCND1 Activation Z-Score,0.042
same,upstream regulator CD5 Activation Z-Score,−1.732
same,upstream regulator CD28 Activation Z-Score,−1.369
same,upstream regulator CD38 Activation Z-Score,−1.353
same,upstream regulator CD40LG Activation Z-Score,−2.045
same,upstream regulator CD40LG Predicted Activation State,inhibited
same,upstream regulator CD44 Activation Z-Score,−1.835
same,upstream regulator CD274 Activation Z-Score,0.478
same,upstream regulator CG Activation Z-Score,−0.872
same,upstream regulator COMMD1 Predicted Activation State,activated
same,upstream regulator DUSP10 Activation Z-Score,0.392
same,upstream regulator EBF1 Activation Z-Score,−2.182
same,upstream regulator EBF1 Predicted Activation State,inhibited
same,upstream regulator EDN1 Activation Z-Score,−1.02
same,upstream regulator EIF2AK4 Activation Z-Score,−2.395
same,upstream regulator EIF2AK4 Predicted Activation State,inhibited
same,upstream regulator ERBB2 Activation Z-Score,−2.46
same,upstream regulator ERBB2 Predicted Activation State,inhibited
same,upstream regulator ERK1/2 Activation Z-Score,−0.915
same,upstream regulator ERK Activation Z-Score,−2.029
same,upstream regulator ERK Predicted Activation State,inhibited
same,upstream regulator FHL2 Activation Z-Score,−0.64
same,upstream regulator FMR1 Activation Z-Score,1.976
same,upstream regulator FYN Activation Z-Score,−1.446
same,upstream regulator HAVCR1 Activation Z-Score,0.104
same,upstream regulator HNF1A-AS1 Activation Z-Score,−2
same,upstream regulator HNF1A-AS1 Predicted Activation State,inhibited
same,upstream regulator ID3 Activation Z-Score,1.671
same,upstream regulator IFN ALPHA/BETA Activation Z-Score,−1.195
same,upstream regulator IGF1 Activation Z-Score,−1.148
same,upstream regulator IGF1R Activation Z-Score,−0.652
same,upstream regulator IKBKB Activation Z-Score,−2.146
same,upstream regulator IKBKB Predicted Activation State,inhibited
same,upstream regulator IL1 Activation Z-Score,−1.785
same,upstream regulator IL4R Activation Z-Score,−0.187
same,upstream regulator IL10 Activation Z-Score,1.633
same,upstream regulator IL12 (FAMILY) Activation Z-Score,1.39
same,upstream regulator IL15 Activation Z-Score,−1.117
same,upstream regulator IL18 Activation Z-Score,−0.28
same,upstream regulator IL21 Activation Z-Score,0.183
same,upstream regulator IL27RA Activation Z-Score,2.207
same,upstream regulator IL27RA Predicted Activation State,activated
same,upstream regulator INSIG1 Activation Z-Score,1.495
same,upstream regulator INSULIN Activation Z-Score,−1.452
same,upstream regulator IRF4 Activation Z-Score,0.415
same,upstream regulator ITGB2 Activation Z-Score,−0.128
same,upstream regulator KCNIP3 Activation Z-Score,0.378
same,upstream regulator KDM1A Activation Z-Score,0.351
same,upstream regulator KRAS Activation Z-Score,−0.772
same,upstream regulator LEF1 Activation Z-Score,0.367
same,upstream regulator LGALS3 Activation Z-Score,−0.747
same,upstream regulator LTA Activation Z-Score,−1.763
same,upstream regulator LTB Activation Z-Score,−1.246
same,upstream regulator LTBR Activation Z-Score,−1.664
same,upstream regulator MAPK3 Activation Z-Score,−0.896
same,upstream regulator MAPK7 Activation Z-Score,−0.64
same,upstream regulator MBP Activation Z-Score,0.577
same,upstream regulator MED1 Activation Z-Score,−1.671
same,upstream regulator MIR-29 Activation Z-Score,1.128
same,upstream regulator MIR-450A-5P (AND OTHER MIRNAS W/SEED UUUGCGA) Predicted Activation State,activated
same,upstream regulator MIRLET7 Activation Z-Score,0
same,upstream regulator MLXIPL Predicted Activation State,inhibited
same,upstream regulator MTORC1 Activation Z-Score,−2.087
same,upstream regulator MTORC1 Predicted Activation State,inhibited
same,upstream regulator MYB Activation Z-Score,−1.742
same,upstream regulator NFAT (FAMILY) Activation Z-Score,−2.176
same,upstream regulator NFAT (FAMILY) Predicted Activation State,inhibited
same,upstream regulator NFATC1 Activation Z-Score,−1.4
same,upstream regulator NFE2L2 Activation Z-Score,−1.966
same,upstream regulator NFIL3 Activation Z-Score,−2.2
same,upstream regulator NFIL3 Predicted Activation State,inhibited
same,upstream regulator NFKBIA Activation Z-Score,−0.758
same,upstream regulator NR4A2 Activation Z-Score,0.898
same,upstream regulator NREP Activation Z-Score,0.218
same,upstream regulator NRG1 Activation Z-Score,−1.949
same,upstream regulator P38 MAPK Activation Z-Score,−2.405
same,upstream regulator P38 MAPK Predicted Activation State,inhibited
same,upstream regulator PDCD1 Activation Z-Score,0.055
same,upstream regulator PDX1 Activation Z-Score,0.24
same,upstream regulator POSTN Activation Z-Score,−1
same,upstream regulator PRDM1 Activation Z-Score,0.122
same,upstream regulator PRKCZ Activation Z-Score,−0.167
same,upstream regulator PTEN Activation Z-Score,0.449
same,upstream regulator PTPRJ Activation Z-Score,0
same,upstream regulator RAS Activation Z-Score,−2.375
same,upstream regulator RAS Predicted Activation State,inhibited
same,upstream regulator RXRA Activation Z-Score,1.069
same,upstream regulator SATB2 Activation Z-Score,−0.152
same,upstream regulator SIRT6 Activation Z-Score,0.064
same,upstream regulator SMAD2 Activation Z-Score,−1.681
same,upstream regulator SMAD7 Activation Z-Score,−0.135
same,upstream regulator SNCA Activation Z-Score,−0.246
same,upstream regulator SORL1 Activation Z-Score,−2.714
same,upstream regulator SORL1 Predicted Activation State,inhibited
same,upstream regulator SPI1 Activation Z-Score,−1.174
same,upstream regulator SREBF1 Activation Z-Score,−3.191
